Source: paper PMC6151456, “Screening a Natural Product-Based Library against Kinetoplastid Parasites” (Molecules : A Journal of Synthetic Chemistry and Natural …, 2017)
Where a name gives a salt, the structure may show the parent alone. Read-outs that look alike come from different tables or passages of the source.

What was measured:
[1] = test system: malaria infection; design: method as in PMID 25490858; conditions: mouse, oral administration; cited from earlier work
[2] = test system: T. b. brucei bloodstream form strain 427; test: T. b. brucei resazurin viability assay; format: cell-based, Trypanosoma brucei brucei; conditions: for IC50: Trypanosoma brucei, n = 2, 14 point dose response, top 20 µM, read-out: IC50 (mean ± SD), T. b. brucei
Description: (§1) For the primary screen, compounds were prepared as a stock concentration of 5 mM in 100% DMSO and tested in duplicate points for two independent experiments (n = 2) at final assay concentrations of 20 µM and 16.7 µM for the L. donovani intracellular amastigote and promastigote viability assays, respectively. Primary screening against T. b. brucei was undertaken at 5 µM and for T. cruzi at 10 µM final concentrations. […] These compounds were then retested in a 14 point format to determine the IC50 value against the parasite, and against HEK-293, THP-1 and 3T3 cells to determine the selectivity to the parasite. […] A top dose of 20 µM was used in the T. b. brucei assay and 18.3 µM for T.cruzi assay, in 14 point dose repsonse curves as described.
The efficacy of compounds against T. b. brucei bloodstream form was evaluated using a resazurin-based assay, previously described in the literature.

[3] = test system: P. falciparum (3D7); conditions: read-out: IC50, chloroquine-sensitive (3D7) P. falciparum; cited from earlier work
[4] = test system: 3T3 host cells; test: 3T3 host cell cytotoxicity (selectivity); format: cell-based, mouse; conditions: relative to T. cruzi
Description: (§2) Primary screening against T. b. brucei was undertaken at 5 µM and for T. cruzi at 10 µM final concentrations.
(§3) The efficacy of compounds against T. cruzi was undertaken using a phenotypic, high-throughput image-based assay as previously described.

[5] = test system: HEK-293 cells; test: HEK-293 resazurin viability assay (cytotoxicity, selectivity); format: cell-based, human
Description: as §2
Cytotoxicity testing was undertaken as previously described.

[6] = test system: T. cruzi intracellular amastigotes; test: T. cruzi intracellular amastigote image-based assay; format: cell-based, Trypanosoma cruzi; conditions: for IC50: Trypanosoma cruzi, intracellular amastigotes, n = 2, top 18.3 µM, read-out: IC50 (mean ± SD), T. cruzi
Description: as §1, §3

[7] = test system: P. falciparum (Dd2); conditions: read-out: IC50, multi-drug resistant (Dd2) P. falciparum; cited from earlier work
[8] = test system: L. donovani DD8 promastigotes; test: L. donovani DD8 promastigote viability assay (resazurin); format: cell-based, Leishmania donovani; conditions: Leishmania donovani; at 16.7 µM
Description: as §1
This assay was established to assess the activity of the compound library on the extracellular form of the parasites. An initial cell density of 1 × 10^5 parasites/mL was inoculated into a 75 cm^2 flask (in a total of 30 mL of M199 medium + 10% (v/v) HIFBS) and incubated at 27 °C. After 96 h the parasites reached the mid-log phase and were seeded in black, clear bottom 384-well plates (Greiner-bio-one®, Monroe, UT, USA) at a concentration of 5 × 10^5 parasites/mL in a volume of 55 µL using a Bravo automated liquid handling platform (Agilent, Santa Clara, CA, USA). Compound stocks were diluted 1:25 in M199 media without HIFBS using a dilution plate (Greiner-bio-one®, Monroe, UT, USA). The compounds were dispensed in 5 µL using a Bravo and parasites incubated for an additional 68 h at 27 °C. Resazurin (Cayman Chemicals®, Ann Arbor, MI, USA) at 0.142 mM final assay concentration was then dispensed into plates at a volume of 10 µL/well using a Multidrop™ 384 Reagent Dispenser (Thermo Scientific®, Newington, NH, USA) and incubated at 27 °C. The plates were read after 4 h on an EnVision™ Multilabel plate reader (PerkinElmer, Waltham, MA, USA) using fluorometry with an excitation of 530 nm and emission 590 nm. For the L. donovani DD8 promastigote viability assay, 1 µM of amphotericin B was used as positive control and 0.4% DMSO as negative control.

[9] = test system: T. cruzi; design: method as in PMID 25033456; conditions: cited from earlier work
[10] = test system: 3T3 host cells; design: method as in PMID 25033456; conditions: relative to T. cruzi; cited from earlier work
[11] = test system: T. b. brucei; design: method as in PMID 20696141; conditions: cited from earlier work
[12] = test system: L. mexicana intracellular amastigotes; design: method as in PMID 15679330; conditions: at 41.89 µM; cited from earlier work
[13] = test system: T. b. brucei variant 221; conditions: cited from earlier work
[14] = test system: L. donovani (MHOM/SD/62/1S-CL2D) axenic amastigotes; design: method as in PMID 15679330; conditions: strain MHOM/SD/62/1S-CL2D; cited from earlier work
[15] = test system: THP-1 cells; test: THP-1 cytotoxicity (selectivity); format: cell-based, human; conditions: relative to L. donovani DD8 intracellular amastigotes
Description: as §1

[16] = test system: L. donovani DD8 intracellular amastigotes; test: L. donovani DD8 intracellular amastigote high content imaging assay; format: cell-based, Leishmania donovani; conditions: Leishmania donovani; n = 2; 14 point dose response, top 20 µM; read-out: IC50 (mean ± SD), L. donovani DD8 intracellular amastigotes
Description: as §1
A high content, high-throughput imaging assay was used to identify compounds active against L. donovani DD8 intracellular amastigotes as described previosuly.

[17] = test system: T. b. brucei; design: method as in PMID 18833031; conditions: cited from earlier work
[18] = test system: NF54 strain of Plasmodium falciparum; design: method as in PMID 28498323; conditions: read-out: IC50, P. falciparum NF54; cited from earlier work
[19] = test system: L. donovani; design: method as in PMID 28498323; conditions: cited from earlier work
[20] = test system: T. cruzi; design: method as in PMID 28498323; conditions: cited from earlier work
[21] = test system: T. b. rhodesiense; design: method as in PMID 28498323; conditions: cited from earlier work
[22] = test system: L. donovani DD8; design: method as in PMID 7592170; conditions: compared to other strains; cited from earlier work

## NCCc1c[nH]c2c1C(=O)C1=C(NC=CS1(=O)=O)C2=O [Compound 3, Thiaplakortone A]
[1]
  suppression of parasitemia: did not suppress parasitemia
[2]
  IC50: 3.94 ± 0.78 µM
[3]
  IC50: 0.051 µM
[4]
  Selectivity index (SI) compared to 3T3 cells: 1.06
[5]; relative to T. b. brucei
  Selectivity index (SI) compared to HEK-293 cells: 0.70
[5]; relative to T. cruzi
  Selectivity index (SI) compared to HEK-293 cells: 0.53
[6]
  IC50: 4.26 ± 0.65 µM
[7]
  IC50: 0.0066 µM

## OC(c1cc(C(F)(F)F)nc2c(C(F)(F)F)cccc12)C1CCCCN1 (stereo not drawn) [Compound 8, Mefloquine HCl, reference compound]
[2]
  IC50: 0.62 ± 0.06 µM
[8]
  inhibition at 16.7 µM: 100%
[9]
  EC50: 6.1 µM
[4]
  Selectivity index (SI) compared to 3T3 cells: > 1.70
[5]; relative to T. b. brucei
  Selectivity index (SI) compared to HEK-293 cells: 7.97
[5]; relative to T. cruzi
  Selectivity index (SI) compared to HEK-293 cells: > 5.06
[6]
  IC50: 3.96 ± 0.58 µM
[10]
  SI to 3T3 host cells: 2

## CC[C@H]1CN2CCc3cc(OC)c(OC)cc3[C@@H]2C[C@@H]1C[C@H]1NCCc2cc(OC)c(OC)cc21 [Compound 10, Emetine dihydrochloride, reference compound]
[8]
  inhibition at 16.7 µM: 100%
[11]
  IC50: 7.9 µM

## COc1c(C)c(O)c(C(=O)/C=C/c2ccccc2)c(O)c1C [Compound 13, (E)-1-(2,6-dihydroxy-4-methoxy-3,5-dimethylphenyl)-3-phenylprop-2-en-1-one]
[12]
  reduction in infection of L. mexicana intracellular amastigotes: 96 ± 2%
[13]
  IC50: 21.1 ± 3.68 µM
[14]
  IC50: 16.8 ± 4.35 µM
[2]
  activity against T. b. brucei: no significant activity
[8]
  inhibition at 16.7 µM: 100%
[15]
  Selectivity index (SI) compared to THP-1 cells: 3.59
[5]; relative to L. donovani DD8 intracellular amastigotes
  Selectivity index (SI) compared to HEK-293 cells: ~ 12
[5]; relative to L. donovani DD8 intracellular amastigotes, listed as Chalcone analogue (13)
  Selectivity index (SI) compared to HEK-293 cells: 11.87
[6]
  activity against T. cruzi: no significant activity
[16]
  IC50: 5.65 ± 0.26 µM

## COc1ccc2c(c[n+](C)c3c4cc5c(cc4ccc23)OCO5)c1OC [Compound 15, Chelerythrine chloride, reference compound]
[2]
  IC50: 0.23 ± 0.04 µM
[17]
  IC50: 1.3 µM
[5]; relative to T. b. brucei, listed as Chelerythrine chloride (15)
  Selectivity index (SI) compared to HEK-293 cells: > 18.71

## CCCCCCC/C=C/C=C/C(=O)NCCc1ccc(O)cc1 [dodeca-2E,4E-dienoic acid 4-hydroxy-2-phenyl-ethylamide]
[18]
  IC50: 3.18 ± 0.2 µM
[19]
  IC50: 4.19 ± 1.64 µM
[20]
  IC50: 1.88 µM
[21]
  IC50: 2.26 ± 0.18 µM

## parmomycin
[22]
  activity against L. donovani DD8: negligible activity
